Among the data in PMC7838034 (Acta Pharmaceutica Sinica. B, 2020) are inhibition and IC50 values, retold here.

Where only a bound is given, the exact number is not on record here.

Experiment [1] concerns the target recombinant BRD4(BD1 + BD2) (Homo sapiens, UniProt O60885). As to the kind of experiment: BRD4 inhibition assay. It counts as binding. As to conditions: tested in duplicate, average; for inhibition at 1 µM: read-out: Inhibition rate BRD4, 1 μmol/L; for inhibition at 10 µM: read-out: Inhibition rate BRD4, 10 μmol/L.
The next experiment addresses PARP1 (Homo sapiens, UniProt P09874). As to the kind of experiment: PARP1 inhibition assay. It counts as biochemical. To be noted: tested in duplicate, average; for inhibition at 1 µM: read-out: Inhibition rate PARP1, 1 μmol/L; for inhibition at 10 µM: read-out: Inhibition rate PARP1, 10 μmol/L.
The test system of a further experiment is MDA-MB-468 cells. As to the kind of experiment: Cell viability assay. It counts as cell-based, human. As to conditions: Homo sapiens, MDA-MB-468, 24 h, read-out: Anti-proliferative activity (IC50).

Sequence of PARP1 (P09874 whole entry): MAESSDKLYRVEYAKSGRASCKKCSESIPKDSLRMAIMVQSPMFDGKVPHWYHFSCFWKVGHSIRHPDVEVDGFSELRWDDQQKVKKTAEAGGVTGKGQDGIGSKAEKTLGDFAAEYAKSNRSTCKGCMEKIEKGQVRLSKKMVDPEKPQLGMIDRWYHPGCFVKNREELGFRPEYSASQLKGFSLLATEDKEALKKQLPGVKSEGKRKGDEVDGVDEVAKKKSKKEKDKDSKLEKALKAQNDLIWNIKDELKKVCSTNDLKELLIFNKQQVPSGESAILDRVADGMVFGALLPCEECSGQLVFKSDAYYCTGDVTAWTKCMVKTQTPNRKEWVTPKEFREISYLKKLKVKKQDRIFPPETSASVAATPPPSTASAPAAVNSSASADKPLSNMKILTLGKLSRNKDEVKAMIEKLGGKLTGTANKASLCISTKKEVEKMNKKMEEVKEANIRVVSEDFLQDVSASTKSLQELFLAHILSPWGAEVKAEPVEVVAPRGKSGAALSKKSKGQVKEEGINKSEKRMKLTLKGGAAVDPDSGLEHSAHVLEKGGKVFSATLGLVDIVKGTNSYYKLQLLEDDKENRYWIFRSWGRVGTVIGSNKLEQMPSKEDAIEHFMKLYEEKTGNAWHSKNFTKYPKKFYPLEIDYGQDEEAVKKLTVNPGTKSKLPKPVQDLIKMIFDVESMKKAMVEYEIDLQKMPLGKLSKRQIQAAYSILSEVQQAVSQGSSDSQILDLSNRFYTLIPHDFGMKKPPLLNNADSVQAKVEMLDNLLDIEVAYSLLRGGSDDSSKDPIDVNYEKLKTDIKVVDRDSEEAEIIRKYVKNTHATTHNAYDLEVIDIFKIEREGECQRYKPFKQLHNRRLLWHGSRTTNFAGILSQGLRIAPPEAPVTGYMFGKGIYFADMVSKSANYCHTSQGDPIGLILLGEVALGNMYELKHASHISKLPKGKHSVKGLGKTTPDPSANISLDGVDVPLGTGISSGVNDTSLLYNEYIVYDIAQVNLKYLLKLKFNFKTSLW

Take `COc1cc(OC)c2c(=O)[nH]c(-c3cc(Cl)ccc3OCCCOc3ccccc3C(N)=O)nc2c1` [Compound 19b, 2-(3-(4-Chloro-2-(5,7-dimethoxy-4-oxo-3,4-dihydroquinazolin-2-yl)phenoxy)propoxy)benzamide]: in experiment [1], the inhibition at 1 µM worked out at 3% and the inhibition at 10 µM was 69%. Besides, on PARP1, the inhibition at 1 µM is 35% and the inhibition at 10 µM stood at 81%. The IC50 – broadly, the concentration that gives 50% inhibition – in the experiment with MDA-MB-468 cells stood at 10.9 ± 0.5 µM.
As to `COc1cc(OC)c2c(=O)[nH]c(-c3cc(Cl)ccc3OCCCCOc3ccccc3C(N)=O)nc2c1` [Compound 19c, 2-(4-(4-Chloro-2-(5,7-dimethoxy-4-oxo-3,4-dihydroquinazolin-2-yl)phenoxy)butoxy)benzamide], in experiment [1], the inhibition at 1 µM stood at 7% and the inhibition at 10 µM worked out at 54%. On PARP1, the inhibition at 1 µM turned out to be 29% and the inhibition at 10 µM turned out to be 84%. For the same compound, the IC50 with MDA-MB-468 cells is 7.4 ± 1.8 µM.
Regarding `COc1cc(OC)c2c(=O)[nH]c(-c3cc(Cl)ccc3OCCCCCOc3ccccc3C(N)=O)nc2c1` [Compound 19e, 2-((5-(4-Chloro-2-(5,7-dimethoxy-4-oxo-3,4-dihydroquinazolin-2-yl)phenoxy)pentyl)oxy)benzamide], in experiment [1], the inhibition at 1 µM is 4% and the inhibition at 10 µM came to 55%. Moreover, on PARP1, the inhibition at 1 µM stood at 18% and the inhibition at 10 µM turned out to be 71%. Besides, the IC50 in the experiment on MDA-MB-468 cells worked out at 15.3 ± 3.6 µM.
The matching figures for `COc1cc(OC)c2c(=O)[nH]c(-c3cc(C)c(OCCOc4ccccc4C(N)=O)c(C)c3)nc2c1` [Compound 19f, 2-(2-(4-(5,7-Dimethoxy-4-oxo-3,4-dihydroquinazolin-2-yl)-2,6-dimethylphenoxy)ethoxy)benzamide]: 11%, 74%, 40%, 79% and 8.4 ± 1.3 µM.
As to `COc1cc(OC)c2c(=O)[nH]c(-c3cc(OC)c(OCCOc4ccccc4C(N)=O)c(OC)c3)nc2c1` [Compound 19g, 2-(2-(4-(5,7-Dimethoxy-4-oxo-3,4-dihydroquinazolin-2-yl)-2,6-dimethoxyphenoxy)ethoxy)benzamide], in experiment [1], the inhibition at 1 µM stood at 15% and the inhibition at 10 µM came to 72%. Further, on PARP1, the inhibition at 1 µM was found to be 25% and the inhibition at 10 µM is 70%. Moreover, the IC50 with MDA-MB-468 cells worked out at 5.7 ± 2.1 µM.
As for `COc1cc(OC)c2c(=O)[nH]c(-c3ccc(OCCOc4ccccc4C(N)=O)c(F)c3)nc2c1` [Compound 19h, 2-(2-(4-(5,7-Dimethoxy-4-oxo-3,4-dihydroquinazolin-2-yl)-2-fluorophenoxy)ethoxy)benzamide], in experiment [1], the inhibition at 1 µM stood at 12% and the inhibition at 10 µM came to 62%. Also, at PARP1, the inhibition at 1 µM worked out at 31% and the inhibition at 10 µM stood at 65%. Also, the IC50 in the experiment with MDA-MB-468 cells is 11.8 ± 3.4 µM.
For the compound `COc1cc(OC)c2c(=O)[nH]c(-c3cc(C)c(OCCOn4nnc5ccccc54)c(C)c3)nc2c1` [Compound 19i, 2-(4-(2-((1H-Benzo[d][1,2,3]triazol-1-yl)oxy)ethoxy)-3,5-dimethylphenyl)-5,7-dimethoxyquinazolin-4(3H)-one], in experiment [1], the inhibition at 1 µM is 18% and the inhibition at 10 µM was 61%. Besides, on PARP1, the inhibition at 1 µM was 11% and the inhibition at 10 µM was determined as 18%. For the same compound, in the experiment on MDA-MB-468 cells, the IC50 is greater than 30 µM.
In the case of `COc1cc(OC)c2c(=O)[nH]c(-c3cc(OC)c(OCCOn4nnc5ccccc54)c(OC)c3)nc2c1` [Compound 19j, 2-(4-(2-((1H-Benzo[d][1,2,3]triazol-1-yl)oxy)ethoxy)-3,5-dimethoxyphenyl)-5,7-dimethoxyquinazolin-4(3H)-one], the inhibition at 1 µM worked out at 12% in experiment [1] and 6% at PARP1. Besides, the inhibition at 10 µM in experiment [1] was determined as 64%; at PARP1, 18%. For the same compound, the IC50 in the experiment on MDA-MB-468 cells is greater than 30 µM.
The matching figures for `COc1cc(OC)c2c(=O)[nH]c(-c3ccc(OCCOn4nnc5ccccc54)cc3)nc2c1` [Compound 19k, 2-(4-(2-((1H-Benzo[d][1,2,3]triazol-1-yl)oxy)ethoxy)phenyl)-5,7-dimethoxyquinazolin-4(3H)-one]: 13%, 7%, 83%, 29% and 22.9 ± 2.4 µM.
The matching figures for `COc1cc(OC)c2c(=O)[nH]c(-c3ccc(OCCOn4nnc5ccccc54)c(F)c3)nc2c1` [Compound 19l, 2-(4-(2-((1H-Benzo[d][1,2,3]triazol-1-yl)oxy)ethoxy)-3-fluorophenyl)-5,7-dimethoxyquinazolin-4(3H)-one]: 29%, 1%, 80%, 14% and 23.7 ± 3.3 µM.
As for `COc1cc(OC)c2c(=O)[nH]c(-c3cc(C)c(OCCOc4ccc5cn[nH]c5c4)c(C)c3)nc2c1` [Compound 19m, 2-(4-(2-((1H-Indazol-6-yl)oxy)ethoxy)-3,5-dimethylphenyl)-5,7-dimethoxyquinazolin-4(3H)-one], in experiment [1], the inhibition at 1 µM came to 15% and the inhibition at 10 µM was 46%. Further, on PARP1, the inhibition at 1 µM was determined as 7% and the inhibition at 10 µM was found to be 11%. Further, in the experiment with MDA-MB-468 cells, the IC50 was greater than 30 µM.
As to `COc1cc(OC)c2c(=O)[nH]c(-c3cc(OC)c(OCCOc4ccc5cn[nH]c5c4)c(OC)c3)nc2c1` [Compound 19n, 2-(4-(2-((1H-Indazol-6-yl)oxy)ethoxy)-3,5-dimethoxyphenyl)-5,7-dimethoxyquinazolin-4(3H)-one], in experiment [1], the inhibition at 1 µM is 14% and the inhibition at 10 µM is 45%. On PARP1, the inhibition at 1 µM came to 9% and the inhibition at 10 µM is 16%. The IC50 in the experiment with MDA-MB-468 cells was greater than 30 µM.
The matching figures for `COc1cc(OC)c2c(=O)[nH]c(-c3ccc(OCCOc4ccc5cn[nH]c5c4)cc3)nc2c1` [Compound 19o, 2-(4-(2-((1H-Indazol-6-yl)oxy)ethoxy)phenyl)-5,7-dimethoxyquinazolin-4(3H)-one]: 3%, 56%, 3%, 13% and greater than 30 µM.
Take `COc1cc(OC)c2c(=O)[nH]c(-c3ccc(OCCOn4nnc5ccccc54)c(Cl)c3)nc2c1` [Compound 19p, 2-(4-(2-((1H-Benzo[d][1,2,3]triazol-1-yl)oxy)ethoxy)-3-chlorophenyl)-5,7-dimethoxyquinazolin-4(3H)-one]: in experiment [1], the inhibition at 1 µM worked out at 3% and the inhibition at 10 µM stood at 44%. Moreover, at PARP1, the inhibition at 1 µM stood at 3% and the inhibition at 10 µM was 6%. Also, the IC50 in the experiment on MDA-MB-468 cells was greater than 30 µM.
Regarding `COc1cc(OC)c2c(=O)[nH]c(-c3cc(F)ccc3OCCOc3ccccc3C(N)=O)nc2c1` [Compound 19s, 2-(2-(2-(5,7-Dimethoxy-4-oxo-3,4-dihydroquinazolin-2-yl)-4-fluorophenoxy)ethoxy)benzamide], in experiment [1], the inhibition at 1 µM was 8% and the inhibition at 10 µM came to 74%. Also, at PARP1, the inhibition at 1 µM worked out at 12% and the inhibition at 10 µM turned out to be 65%. The IC50 in the experiment with MDA-MB-468 cells is 8.7 ± 5.2 µM.
With `COc1cc(OC)c2c(=O)[nH]c(-c3ccc(OCCOc4ccc5nc[nH]c(=O)c5c4)cc3)nc2c1` [Compound 19t, 5,7-Dimethoxy-2-(4-(2-((4-oxo-3,4-dihydroquinazolin-6-yl)oxy)ethoxy)phenyl)quinazolin-4(3H)-one], the inhibition at 1 µM in experiment [1] is 9%; on PARP1, 1%. In addition, the inhibition at 10 µM in experiment [1] came to 67%; at PARP1 it was 25%. Also, the IC50 with MDA-MB-468 cells was greater than 30 µM.
For `COc1cc(OC)c2c(=O)[nH]c(-c3ccc(OCCOc4ccncc4C(N)=O)cc3)nc2c1` [Compound 19u, 4-(2-(4-(5,7-Dimethoxy-4-oxo-3,4-dihydroquinazolin-2-yl)phenoxy)ethoxy)nicotinamide], in experiment [1], the inhibition at 1 µM is 6% and the inhibition at 10 µM was found to be 77%. Also, on PARP1, the inhibition at 1 µM came to 36% and the inhibition at 10 µM came out at 81%. In the experiment on MDA-MB-468 cells, the IC50 was determined as 6.7 ± 2.4 µM.
The matching figures for `COc1cc(OC)c2c(=O)[nH]c(-c3cc(C)c(OCCO)c(C)c3)nc2c1` [RVX-208, reference compound]: 20%, 60%, 1%, 4% and greater than 30 µM.
